Results published in patent publication US20070202515A1, “Promac signature application” (PATHOLOGICA, LLC., priority 2005, published 2007).

How the values were obtained:
[1] = test system: subcutaneous T cell lymphoma; test: Phase I trial of CG-47: clinical response of lymphoma; assay type: in vivo, human
Text: As part of the clinical development of CG-47, Pathologica performed analysis on blood samples from a subset of patients currently enrolled in a Phase I trial of the safety of the investigational polyamine CG-47. The trial recruited patients who have failed conventional therapy for various lymphomas. The patients received increasing amounts of CG47 for 5 days every three weeks by infusion. The trial was a dose escalation trial in which the first 3 patients received the lowest dose, the next three a higher dose etc. One patient, a person with subcutaneous T cell lymphoma, received 4 doses of 50 mg/m^2 of CG-47 over a 12 week period. […] Relapse of the lymphoma then occurred and a final sample was obtained. Levels of CD14-16++macrophages and the LC5-CI values obtained from the baseline and various subsequent samples are presented in FIG. 10. At presentation the patient had elevated CD14-16% s (˜50%) and a strongly positive LC5-CI score (6.2). After the first cycle of CG-47 the patient entered a clinical remission of their cancer that lasted for the […] of CG-47. During their clinical remission both the CD14-16++ levels and the LC5-CI scores normalized. After the 4th cycle of CG-47 the patient experienced a relapse in their cancer and in the post relapse samples CD14-16++ levels were again elevated (50%) and their LC5-CI value had reverted to a positive score (12.9). […]

CD14-16++macrophages = test: Levels of CD14-16++ macrophages in patient blood by flow cytometry; assay type: in vivo, human; details: same patient
Text: FIG. 10: LC5-CI and Signature values in cutaneous T-cell lymphoma patient—the percent of CD14 cells also staining with antibodies to CD16 by flow cytometry (filled triangles) is plotted (left y axis) along with the LC5-CI (open triangles) determined for the same samples (right y axis). The samples include the baseline sample obtained prior to the administration of the first cycle of CG-47 (baseline, x axis), the samples obtained prior to the patient receiving the 2nd, 3rd, and 4th cycle of CG-47 (cy2, cy3, and cy4, respectively) and the final sample obtained when the patient experienced a relapse (ReLps).
As part of the clinical development of CG-47, Pathologica performed analysis on blood samples from a subset of patients currently enrolled in a Phase I trial of the safety of the investigational polyamine CG-47. The trial recruited patients who have failed conventional therapy for various lymphomas. The patients received increasing amounts of CG47 for 5 days every three weeks by infusion. The trial was a dose escalation trial in which the first 3 patients received the lowest dose, the next three a higher dose etc. One patient, a person with subcutaneous T cell lymphoma, received 4 doses of 50 mg/m^2 of CG-47 over a 12 week period. […] Relapse of the lymphoma then occurred and a final sample was obtained. […]

[2] = test system: G1P3, GPR43, IFIT2, ORM1, TNFSF10; test: LC5-CI quantitative RT-PCR classification index on PBMCs; assay type: in vivo, human; details: same patient
Text: Aliquots of the RNA preparations were then RT-PCR amplified using quantitative real time methods employing a Light-Cycler^36. The signals obtained were normalized against the signal obtained with primers for β-actin according to the formula Ctactin−Ctgene=NSig where Ct=the threshold cycle for the indicated gene and NSig=the normalized signal.
Therefore, we constructed a “weighted voting” scheme using the methods described by Golub and co-workers^37 for 10 of the most promising primer sets. ALS and control patients were divided into training and test sets and the actin normalized signal for each sample with each primer set was determined as described above. Then the voting weights (modified Rs) were calculated using the test samples according to the formula Mod R=(Mean ALS−Mean CON)/(StDev ALS+StDev CON) calculated using 13 ALS samples & 11 controls.
Next the inflection point or the mid point between the ALS and control samples is calculated according to MID=(MeanALS+MeanCON)/2
Then the signal for the individual primer (ICV) is calculated according to ICV=Mod R(Mean NSig−Mid)
The predictive power of the various primers was then evaluated using the test set of samples. […]

cancer = details: response not universal; cited from earlier work
[3] = ALS patients; cited from earlier work

## CCNCCCNC/C=C\CNCCCNCC.Cl.Cl.Cl.Cl [CG-47]
[1]; began after administration of the first dose, 50 mg/m^2, same patient
  duration of remission: approximately 10 weeks
[1]; one patient, 4 doses of 50 mg/m^2 over a 12 week period by infusion
  clinical response of lymphoma: very significant remission
CD14-16++macrophages; relapse after the 4th cycle
  CD14-16++ levels in post relapse samples: 50%
CD14-16++macrophages; at presentation elevated (~50%)
  CD14-16++ levels during clinical remission: normalized
[2]; relapse after the 4th cycle
  LC5-CI value in post relapse samples: 12.9
[2]; at presentation strongly positive (6.2)
  LC5-CI scores during clinical remission: normalized

## C/C(=N\N=C(N)N)c1cc(NC(=O)CCCCCCCCC(=O)Nc2cc(/C(C)=N/N=C(N)N)cc(/C(C)=N/N=C(N)N)c2)cc(/C(C)=N/N=C(N)N)c1.Cl.Cl.Cl.Cl [CNI-1493]
cancer
  efficacy against cancer in clinical trials: some level of efficacy against cancer

## CC(C=NNC(=N)N)=NNC(=N)N.Cl.Cl.O [MGBG, Methylglyoxal bis(guanylhydrazone) dihydrochloride hydrate]
cancer
  efficacy against cancer in clinical trials: some level of efficacy against cancer

## Nc1nc2ccc(OC(F)(F)F)cc2s1 [Riluzole]
[3]
  effect on disease progression: only modest slowing of disease progression
